The source made the active and inactive calls. No rule for the calls is given here.
Test system: CCRIS mutagenicity, Ames/micronucleus/aberration tests
Test: CCRIS mutagenicity studies
[1] = Test System: AMES SALMONELLA TYPHIMURIUM, Strain/Indicator: TA100, Metabolic Activation: NONE, Method: STANDARD PLATE
[2] = Test System: AMES SALMONELLA TYPHIMURIUM, Strain/Indicator: TA1535, Metabolic Activation: NONE, Method: STANDARD PLATE
[3] = Test System: AMES SALMONELLA TYPHIMURIUM, Strain/Indicator: TA100, Metabolic Activation: NONE, Method: PREINCUBATION
[4] = Test System: AMES SALMONELLA TYPHIMURIUM, Strain/Indicator: TA1535, Metabolic Activation: NONE, Method: PREINCUBATION
[5] = Test System: AMES SALMONELLA TYPHIMURIUM, Strain/Indicator: TA98, Metabolic Activation: NONE, Method: PREINCUBATION
[6] = Test System: AMES SALMONELLA TYPHIMURIUM, Strain/Indicator: TA102, Metabolic Activation: NONE, Method: PREINCUBATION

For CCN(CCCl)CCCNc1c2ccc(Cl)cc2nc2ccc(OC)cc12, the mutagenic call (Test System: AMES SALMONELLA TYPHIMURIUM, Strain/Indicator: TA98, Metabolic Activation: NONE, Method: STANDARD PLATE) was “active; positive”, the mutagenic call [1] was “active; positive” and the mutagenic call [2] was “inactive; negative”. For the same compound, the mutagenic call (Test System: AMES SALMONELLA TYPHIMURIUM, Strain/Indicator: TA1536, Metabolic Activation: NONE, Method: STANDARD PLATE) was “active; positive”, the mutagenic call (Test System: AMES SALMONELLA TYPHIMURIUM, Strain/Indicator: TA1537, Metabolic Activation: NONE, Method: STANDARD PLATE) was “active; positive” and the mutagenic call (Test System: AMES SALMONELLA TYPHIMURIUM, Strain/Indicator: TA1538, Metabolic Activation: NONE, Method: STANDARD PLATE) was “active; positive”. The mutagenic call (Test System: CHINESE HAMSTER OVARY, Strain/Indicator: CHO-K1-BH4 (HGPRT)/6-THIOGUANINE, Metabolic Activation: NONE, Method: SUSPENSION/PLATE) was “active; positive”, the mutagenic call (Test System: CHINESE HAMSTER OVARY, Strain/Indicator: CHO-K1-BH4 (HGPRT), Metabolic Activation: NONE, Method: MONOLAYER ASSAY) was “active; positive” and the mutagenic call (Test System: CHINESE HAMSTER OVARY, Strain/Indicator: CHO-K1-BH4 (HGPRT), Metabolic Activation: NONE, Method: SUSPENSION/PLATE) was “active; positive”. For the same compound, the mutagenic call (Test System: CHINESE HAMSTER V-79, Strain/Indicator: V-79/6-THIOGUANINE, Metabolic Activation: NONE, Method: FLASK ASSAY) was “active; positive”, the mutagenic call (Test System: CHINESE HAMSTER V-79, Strain/Indicator: V-79/8-AZAGUANINE, Metabolic Activation: NONE, Method: STANDARD PLATE) was “active; positive” and the mutagenic call (Test System: CHO/HGPRT, Strain/Indicator: CHO-K1-BH4, Metabolic Activation: NONE, Method: STANDARD PLATE) was “active; positive”. For the same compound, the mutagenic call (Test System: MOUSE LYMPHOMA, Strain/Indicator: L5178Y (TK+/TK-), Metabolic Activation: NONE, Method: SUSPENSION/PLATE) was “active; positive”, the mutagenic call (Test System: Mouse lymphoma, Strain/Indicator: L5178Y (tk+/tk-), Metabolic Activation: None, Method: Suspension/plate) was “active; positive” and the mutagenic call (Test System: Mouse lymphoma, Strain/Indicator: L5178Y (tk+/tk-), Metabolic Activation: Rat, Liver, S-9, Aroclor 1254, Method: Suspension/plate) was “inconclusive (previous evaluation equivocal)”.
Cc1cc(O)c2c(c1O)C(=O)c1c(-c3ccc(O)c4c3C(=O)c3c(O)c(C)cc(O)c3C4=O)ccc(O)c1C2=O was tested, and the mutagenic call (Test System: UDS RODENT HEPATOCYTES, Strain/Indicator: THY INCORP, Metabolic Activation: NONE, Method: AUTORADIOGRAPHY) was “inactive; negative”.
For FC(F)(F)c1ccccc1CN1C2c3ccccc3-c3ccccc3C21 (centres undefined), the mutagenic call [1] was “active; positive”.
In the case of Clc1ccc(CC2CO2)cc1 (centres undefined), the mutagenic call [3] is reported as “active; positive”, the mutagenic call [1] is reported as “active; positive” and the mutagenic call [4] is reported as “active; positive”. For the same compound, the mutagenic call [2] was “active; positive”.
With Nc1ccc2c(c1)-c1ccccc1C2 the mutagenic call (Test System: AMES SALMONELLA TYPHIMURIUM, Strain/Indicator: TA98, Metabolic Activation: RAT, LIVER, S-9, AROCLOR 1254 (2 OR 4%), Method: STANDARD PLATE) was “active; positive”, the mutagenic call (Test System: AMES SALMONELLA TYPHIMURIUM, Strain/Indicator: TA100, Metabolic Activation: RAT, LIVER, S-9, AROCLOR 1254 (4%), Method: STANDARD PLATE) was “active; positive” and the mutagenic call (Test System: AMES SALMONELLA TYPHIMURIUM, Strain/Indicator: TA1535, Metabolic Activation: RAT, LIVER, S-9, AROCLOR 1254 (4%), Method: STANDARD PLATE) was “inactive; negative”. The mutagenic call (Test System: AMES SALMONELLA TYPHIMURIUM, Strain/Indicator: TA1537, Metabolic Activation: RAT, LIVER, S-9, AROCLOR 1254 (4%), Method: STANDARD PLATE) was “active; positive”.
With COc1ccc(NC(C)=O)cc1N the mutagenic call (End Point: IN VITRO CHROMOSOMAL ABERRATIONS, Test System: CHL CELLS, Metabolic Activation: RAT, LIVER, S-9, SODIUM PHENOBARBITAL AND 5,6-BENZOFLAVONE) was “active; positive (structural changes); authors report equivocal results for ploidy chang”, the mutagenic call [5] was “inactive; negative” and the mutagenic call (Test System: AMES SALMONELLA TYPHIMURIUM, Strain/Indicator: TA98, Metabolic Activation: RAT, LIVER, S-9, PHENOBARBITAL AND BETA-NAPHTHOFLAVONE, Method: PREINCUBATION) was “active; positive”. The mutagenic call [3] was “inactive; negative” and the mutagenic call (Test System: AMES SALMONELLA TYPHIMURIUM, Strain/Indicator: TA100, Metabolic Activation: RAT, LIVER, S-9, PHENOBARBITAL AND BETA-NAPHTHOFLAVONE, Method: PREINCUBATION) was “active; positive”.
With COc1cc(C(C)=O)ccc1O the mutagenic call (Test System: AMES SALMONELLA TYPHIMURIUM, Strain/Indicator: TA97, Metabolic Activation: NONE, Method: PREINCUBATION) was “inactive; negative”, the mutagenic call (Test System: AMES SALMONELLA TYPHIMURIUM, Strain/Indicator: TA97, Metabolic Activation: RAT, LIVER, S-9, AROCLOR 1254, Method: PREINCUBATION) was “inactive; negative” and the mutagenic call [5] was “inactive; negative”. The mutagenic call (Test System: AMES SALMONELLA TYPHIMURIUM, Strain/Indicator: TA98, Metabolic Activation: RAT, LIVER, S-9, AROCLOR 1254, Method: PREINCUBATION) was “inactive; negative”, the mutagenic call [3] was “inactive; negative” and the mutagenic call (Test System: AMES SALMONELLA TYPHIMURIUM, Strain/Indicator: TA100, Metabolic Activation: RAT, LIVER, S-9, AROCLOR 1254, Method: PREINCUBATION) was “inactive; negative”. For the same compound, the mutagenic call [6] was “inactive; negative” and the mutagenic call (Test System: AMES SALMONELLA TYPHIMURIUM, Strain/Indicator: TA102, Metabolic Activation: RAT, LIVER, S-9, AROCLOR 1254, Method: PREINCUBATION) was “inactive; negative”.
For O=S(O)CO, the mutagenic call [5] was “inactive; negative”, the mutagenic call (Test System: AMES SALMONELLA TYPHIMURIUM, Strain/Indicator: TA98, Metabolic Activation: RAT LIVER S-9, PHENOBARBITAL AND BETA-NAPHTHOFLAVONE, Method: PREINCUBATION) was “inactive; negative” and the mutagenic call [3] was “inactive; negative”. For the same compound, the mutagenic call (Test System: AMES SALMONELLA TYPHIMURIUM, Strain/Indicator: TA100, Metabolic Activation: RAT LIVER S-9, PHENOBARBITAL AND BETA-NAPHTHOFLAVONE, Method: PREINCUBATION) was “inactive; negative”, the mutagenic call [6] was “inactive; negative” and the mutagenic call (Test System: AMES SALMONELLA TYPHIMURIUM, Strain/Indicator: TA102, Metabolic Activation: RAT LIVER S-9, PHENOBARBITAL AND BETA-NAPHTHOFLAVONE, Method: PREINCUBATION) was “inactive; negative”. The mutagenic call (Test System: AMES SALMONELLA TYPHIMURIUM, Strain/Indicator: TA104, Metabolic Activation: NONE, Method: PREINCUBATION) was “inactive; negative”, the mutagenic call (Test System: AMES SALMONELLA TYPHIMURIUM, Strain/Indicator: TA104, Metabolic Activation: RAT LIVER S-9, PHENOBARBITAL AND BETA-NAPHTHOFLAVONE, Method: PREINCUBATION) was “inactive; negative” and the mutagenic call [4] was “inactive; negative”. For the same compound, the mutagenic call (Test System: AMES SALMONELLA TYPHIMURIUM, Strain/Indicator: TA1535, Metabolic Activation: RAT LIVER S-9, PHENOBARBITAL AND BETA-NAPHTHOFLAVONE, Method: PREINCUBATION) was “inactive; negative”, the mutagenic call (Test System: AMES SALMONELLA TYPHIMURIUM, Strain/Indicator: TA1537, Metabolic Activation: NONE, Method: PREINCUBATION) was “inactive; negative” and the mutagenic call (Test System: AMES SALMONELLA TYPHIMURIUM, Strain/Indicator: TA1537, Metabolic Activation: RAT LIVER S-9, PHENOBARBITAL AND BETA-NAPHTHOFLAVONE, Method: PREINCUBATION) was “inactive; negative”. The mutagenic call (Test System: E.COLI, Strain/Indicator: WP2UVRA/PKM101, Metabolic Activation: NONE, Method: PREINCUBATION) was “inactive; negative”, the mutagenic call (Test System: E.COLI, Strain/Indicator: WP2UVRA/PKM101, Metabolic Activation: RAT LIVER S-9, PHENOBARBITAL AND BETA-NAPHTHOFLAVONE, Method: PREINCUBATION) was “inactive; negative” and the mutagenic call (Test System: E.COLI, Strain/Indicator: WP2UVRA, Metabolic Activation: NONE, Method: PREINCUBATION) was “inactive; negative”. For the same compound, the mutagenic call (Test System: E.COLI, Strain/Indicator: WP2UVRA, Metabolic Activation: RAT LIVER S-9, PHENOBARBITAL AND BETA-NAPHTHOFLAVONE, Method: PREINCUBATION) was “inactive; negative”.

From PubChem BioAssay AID1259407 (Chemical Carcinogenesis Research Information System (CCRIS), 2018)
